Results from article PMC7827406, “Structure–Activity Relationship (SAR) Study of Spautin-1 to Entail the Discovery of Novel NEK4 Inhibitors” (International Journal of Molecular Sciences, 2021).
Like-named read-outs stand apart in the source and are kept apart here.

How the values were obtained:
Test in all cases: biochemical
Design in all cases: Eurofins KinaseProfiler full panel at Km ATP, residual kinase activity (%) relative to DMSO
[1] = molecular target: LTK(h) (Homo sapiens, UniProt P29376)
Sequence of LTK(h) (P29376 whole entry): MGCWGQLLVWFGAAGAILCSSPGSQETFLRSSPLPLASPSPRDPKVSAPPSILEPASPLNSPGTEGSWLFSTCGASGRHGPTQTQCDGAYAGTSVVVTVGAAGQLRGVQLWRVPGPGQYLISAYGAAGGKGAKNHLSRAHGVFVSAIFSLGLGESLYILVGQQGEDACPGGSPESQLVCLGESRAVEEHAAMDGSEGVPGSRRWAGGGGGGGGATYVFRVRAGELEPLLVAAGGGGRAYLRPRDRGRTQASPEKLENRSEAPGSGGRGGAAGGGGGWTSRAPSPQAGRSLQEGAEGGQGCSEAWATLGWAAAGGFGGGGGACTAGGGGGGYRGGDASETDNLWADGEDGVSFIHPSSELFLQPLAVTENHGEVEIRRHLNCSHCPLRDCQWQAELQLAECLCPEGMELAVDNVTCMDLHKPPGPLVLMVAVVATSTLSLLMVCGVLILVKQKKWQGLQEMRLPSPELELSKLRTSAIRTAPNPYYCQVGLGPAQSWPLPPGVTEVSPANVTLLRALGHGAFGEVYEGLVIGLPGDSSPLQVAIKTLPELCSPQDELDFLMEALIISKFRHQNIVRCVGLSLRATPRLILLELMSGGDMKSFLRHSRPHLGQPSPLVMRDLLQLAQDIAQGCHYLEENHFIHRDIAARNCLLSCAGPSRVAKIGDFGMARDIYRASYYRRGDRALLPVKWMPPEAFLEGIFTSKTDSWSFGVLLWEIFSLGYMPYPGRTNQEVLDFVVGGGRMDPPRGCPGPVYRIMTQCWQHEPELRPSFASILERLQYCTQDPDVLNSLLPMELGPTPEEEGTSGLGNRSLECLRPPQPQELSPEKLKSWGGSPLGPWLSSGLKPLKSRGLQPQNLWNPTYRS
Outline: (§1)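 Two 10 µM single-concentration screens were run: a competition-binding screen, in which DNA-tagged kinase bound to immobilized ligands was quantified by qPCR, and a radiometric activity panel at Km ATP. Each is expressed as residual kinase activity (%).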

[2] = molecular target: T1, MEK1(h) (Homo sapiens, UniProt Q02750)
T1 construct: gene MAP2K1
T1 sequence (Q02750 whole entry): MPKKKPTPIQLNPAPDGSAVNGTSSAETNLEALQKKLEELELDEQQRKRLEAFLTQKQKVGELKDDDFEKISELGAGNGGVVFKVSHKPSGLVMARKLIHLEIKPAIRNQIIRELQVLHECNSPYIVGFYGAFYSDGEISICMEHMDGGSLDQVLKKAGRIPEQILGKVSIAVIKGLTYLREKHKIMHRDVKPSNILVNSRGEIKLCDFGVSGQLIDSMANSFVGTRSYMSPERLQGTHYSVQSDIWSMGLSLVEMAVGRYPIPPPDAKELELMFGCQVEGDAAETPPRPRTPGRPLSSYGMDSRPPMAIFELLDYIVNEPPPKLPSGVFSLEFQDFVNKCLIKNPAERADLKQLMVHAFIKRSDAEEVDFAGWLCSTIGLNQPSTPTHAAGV
Outline: as §1

[3] = molecular target: T2, MKK6(h) (Homo sapiens, UniProt P52564)
T2 construct: gene MAP2K6
T2 sequence (P52564 1-334): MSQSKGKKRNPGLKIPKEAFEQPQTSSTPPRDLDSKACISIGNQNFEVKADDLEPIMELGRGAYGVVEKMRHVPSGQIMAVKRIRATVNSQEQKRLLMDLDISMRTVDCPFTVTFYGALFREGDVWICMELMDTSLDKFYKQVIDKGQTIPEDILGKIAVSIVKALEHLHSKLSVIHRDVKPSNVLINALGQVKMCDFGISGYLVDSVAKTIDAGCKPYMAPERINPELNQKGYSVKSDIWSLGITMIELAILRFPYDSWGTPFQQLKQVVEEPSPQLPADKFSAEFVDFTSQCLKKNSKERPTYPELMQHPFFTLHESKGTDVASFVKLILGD
Outline: as §1

[4] = molecular target: T3, PKA(h) (Homo sapiens, UniProt P17612)
T3 construct: gene PRKACA
Outline: as §1

[5] = molecular target: T4, Pim-1(h) (Homo sapiens, UniProt P11309)
T4 construct: gene PIM1
T4 sequence (P11309 whole entry): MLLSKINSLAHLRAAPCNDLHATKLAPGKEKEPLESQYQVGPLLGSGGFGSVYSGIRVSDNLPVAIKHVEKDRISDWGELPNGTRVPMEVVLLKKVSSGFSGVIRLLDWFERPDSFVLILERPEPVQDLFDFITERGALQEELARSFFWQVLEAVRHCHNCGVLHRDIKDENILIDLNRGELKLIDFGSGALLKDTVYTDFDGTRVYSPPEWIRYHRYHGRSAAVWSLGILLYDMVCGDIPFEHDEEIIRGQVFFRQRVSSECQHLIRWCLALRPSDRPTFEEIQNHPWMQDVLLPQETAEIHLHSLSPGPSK
Outline: as §1

[6] = molecular target: T5, Rse(h) (Homo sapiens, UniProt Q06418)
T5 construct: gene TYRO3
T5 sequence (Q06418 1-890): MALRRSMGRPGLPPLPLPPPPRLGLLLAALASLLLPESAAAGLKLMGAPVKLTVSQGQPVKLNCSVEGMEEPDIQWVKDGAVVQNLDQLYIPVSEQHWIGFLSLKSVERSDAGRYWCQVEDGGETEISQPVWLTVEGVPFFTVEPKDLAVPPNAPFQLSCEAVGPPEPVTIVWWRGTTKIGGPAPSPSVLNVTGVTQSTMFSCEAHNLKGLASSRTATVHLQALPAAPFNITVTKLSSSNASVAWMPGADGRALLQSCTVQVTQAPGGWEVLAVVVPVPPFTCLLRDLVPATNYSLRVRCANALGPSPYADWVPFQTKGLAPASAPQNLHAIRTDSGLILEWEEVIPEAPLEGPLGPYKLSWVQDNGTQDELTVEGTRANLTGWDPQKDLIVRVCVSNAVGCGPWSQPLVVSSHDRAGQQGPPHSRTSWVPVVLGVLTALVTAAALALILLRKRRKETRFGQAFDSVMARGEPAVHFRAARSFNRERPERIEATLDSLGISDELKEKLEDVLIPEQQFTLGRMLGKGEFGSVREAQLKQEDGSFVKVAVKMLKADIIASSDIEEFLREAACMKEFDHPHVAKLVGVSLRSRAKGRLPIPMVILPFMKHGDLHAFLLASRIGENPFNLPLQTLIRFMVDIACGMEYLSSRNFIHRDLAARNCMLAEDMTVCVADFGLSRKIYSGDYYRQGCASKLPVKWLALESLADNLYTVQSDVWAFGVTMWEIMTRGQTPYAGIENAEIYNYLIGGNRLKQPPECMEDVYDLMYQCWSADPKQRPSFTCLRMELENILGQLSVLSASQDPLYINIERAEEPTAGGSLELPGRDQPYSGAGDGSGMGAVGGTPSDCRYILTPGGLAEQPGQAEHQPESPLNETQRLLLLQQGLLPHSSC
Outline: as §1

[7] = molecular target: STK33(h) (Homo sapiens, UniProt Q9BYT3)
Sequence of STK33(h) (Q9BYT3 whole entry): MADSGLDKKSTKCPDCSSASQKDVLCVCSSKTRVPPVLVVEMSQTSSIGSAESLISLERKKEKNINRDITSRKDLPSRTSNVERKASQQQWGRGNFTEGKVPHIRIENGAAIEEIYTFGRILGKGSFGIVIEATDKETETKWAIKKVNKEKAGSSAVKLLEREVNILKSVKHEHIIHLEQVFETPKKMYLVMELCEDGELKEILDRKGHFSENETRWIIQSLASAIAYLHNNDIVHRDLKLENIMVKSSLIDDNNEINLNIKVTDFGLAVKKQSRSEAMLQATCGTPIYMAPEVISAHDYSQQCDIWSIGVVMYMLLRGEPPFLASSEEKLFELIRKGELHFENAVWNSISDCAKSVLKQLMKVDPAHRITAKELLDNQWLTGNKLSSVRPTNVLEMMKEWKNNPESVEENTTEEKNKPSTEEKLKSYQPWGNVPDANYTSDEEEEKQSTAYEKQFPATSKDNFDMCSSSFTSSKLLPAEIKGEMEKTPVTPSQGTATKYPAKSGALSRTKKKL
Outline: as §1

[8] = molecular target: T6, cKit(V560G)(h) (Homo sapiens, UniProt P10721, V560G)
T6 construct: gene KIT
T6 sequence (P10721 whole entry V560G): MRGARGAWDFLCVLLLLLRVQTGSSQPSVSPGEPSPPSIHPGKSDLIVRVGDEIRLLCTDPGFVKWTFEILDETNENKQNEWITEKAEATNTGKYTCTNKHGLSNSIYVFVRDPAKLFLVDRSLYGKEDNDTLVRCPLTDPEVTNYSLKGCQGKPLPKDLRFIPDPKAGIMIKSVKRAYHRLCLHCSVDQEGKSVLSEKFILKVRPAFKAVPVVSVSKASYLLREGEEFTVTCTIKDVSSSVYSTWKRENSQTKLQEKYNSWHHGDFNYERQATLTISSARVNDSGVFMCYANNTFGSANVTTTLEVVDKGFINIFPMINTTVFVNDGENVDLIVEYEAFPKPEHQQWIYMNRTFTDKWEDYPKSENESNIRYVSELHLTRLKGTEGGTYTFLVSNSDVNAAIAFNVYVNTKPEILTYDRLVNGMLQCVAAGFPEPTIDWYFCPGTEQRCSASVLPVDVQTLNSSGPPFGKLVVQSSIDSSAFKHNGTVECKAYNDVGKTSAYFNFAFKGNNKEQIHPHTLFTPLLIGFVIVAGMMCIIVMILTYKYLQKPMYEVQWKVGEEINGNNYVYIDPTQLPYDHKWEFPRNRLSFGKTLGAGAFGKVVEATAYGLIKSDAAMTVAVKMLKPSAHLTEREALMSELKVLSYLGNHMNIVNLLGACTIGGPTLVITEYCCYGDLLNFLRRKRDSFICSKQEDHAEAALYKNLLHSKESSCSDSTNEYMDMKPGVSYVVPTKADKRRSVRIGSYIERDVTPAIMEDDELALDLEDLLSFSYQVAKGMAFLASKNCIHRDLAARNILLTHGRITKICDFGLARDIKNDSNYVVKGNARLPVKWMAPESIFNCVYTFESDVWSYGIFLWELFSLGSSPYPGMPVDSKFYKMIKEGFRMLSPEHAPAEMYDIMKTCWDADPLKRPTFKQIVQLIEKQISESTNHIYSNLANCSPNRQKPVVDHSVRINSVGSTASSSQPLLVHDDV
Outline: as §1

[9] = read-out: Residual activity (%) 5at
[10] = read-out: Residual activity (%) 5as
[11] = read-out: Residual activity (%) 5ay
[12] = read-out: Residual activity (%) Spautin-1 5aa

In the case of Fc1ccc2ncnc(NCCc3ccc(Cl)cc3)c2c1 [5at, N-[2-(4-Chlorophenyl)Ethyl]-6-Fluoro-4-Quinazolinamine], the remaining activity at 10 µM [1, 9] was 74%, the remaining activity at 10 µM [2, 9] was 73% and the remaining activity at 10 µM [3, 9] was 95%. The remaining activity at 10 µM [4, 9] was 106%, the remaining activity at 10 µM [5, 9] was 70% and the remaining activity at 10 µM [6, 9] was 103%. It also gave a remaining activity at 10 µM [7, 9] of 100% and a remaining activity at 10 µM [8, 9] of 90%.

For Fc1ccc(CCNc2ncnc3ccc(F)cc23)cc1 [5as, 6-Fluoro-N-[2-(4-Fluorophenyl)Ethyl]-4-Quinazolinamine], the remaining activity at 10 µM [1, 10] was 76%, the remaining activity at 10 µM [2, 10] was 84% and the remaining activity at 10 µM [3, 10] was 84%. The remaining activity at 10 µM [4, 10] was 101%, the remaining activity at 10 µM [5, 10] was 73% and the remaining activity at 10 µM [6, 10] was 100%. For the same compound, the remaining activity at 10 µM [7, 10] was 90% and the remaining activity at 10 µM [8, 10] was 105%.

For COc1ccc2ncnc(Nc3cccc(F)c3)c2c1 [5ay, N-(3-Fluorophenyl)-6-Methoxy-4-Quinazolinamine], the remaining activity at 10 µM [1, 11] was 76%, the remaining activity at 10 µM [2, 11] was 93% and the remaining activity at 10 µM [3, 11] was 74%. It also gave a remaining activity at 10 µM [4, 11] of 97%, a remaining activity at 10 µM [5, 11] of 39% and a remaining activity at 10 µM [6, 11] of 107%. It also gave a remaining activity at 10 µM [7, 11] of 77% and a remaining activity at 10 µM [8, 11] of 106%.

With Fc1ccc(CNc2ncnc3ccc(F)cc23)cc1 [5aa, 6-Fluoro-N-(4-fluorobenzyl)-4-Quinazolinamine] the remaining activity at 10 µM [1, 12] was 88%, the remaining activity at 10 µM [2, 12] was 91% and the remaining activity at 10 µM [3, 12] was 78%. The remaining activity at 10 µM [4, 12] was 103%, the remaining activity at 10 µM [5, 12] was 66% and the remaining activity at 10 µM [6, 12] was 104%. For the same compound, the remaining activity at 10 µM [8, 12] was 85%.
